# Experimental data from US20220211728A1, “ALKYL-TPP COMPOUNDS FOR MITOCHONDRIA TARGETING AND ANTI-CANCER TREATMENTS” (LUNELLA BIOTECH, INC., priority 2019, published 2022).
# “Also recorded” adds a separate entry of the source. Like-named read-outs stand apart in the source and are kept apart here.
# Key:
# [1] = system: MCF-7 breast cancer cells; assay: mammosphere formation assay (CSC propagation) in MCF-7 cells; format: cell-based, human; settings: for IC50: Homo sapiens, MCF7
# Procedure: (§1) The mammosphere assay was performed as follows. A single cell suspension of MCF-7 or MDA-MB-231 cells was prepared using enzymatic (1× Trypsin-EDTA, Sigma Aldrich), and manual disaggregation (25 gauge needle). Cells were then plated at a density of 500 cells/cm^2 in mammosphere medium (DMEM-F12/B27/20-ng/ml EGF/PenStrep) in nonadherent conditions, in culture dishes coated with (2-hydroxyethylmethacrylate) (poly-HEMA, Sigma Aldrich), in the presence of treatments, were required. Cells were grown for 5 days and maintained in a humidified incubator at 37° C. at an atmospheric pressure in 5% (v/v) carbon dioxide/air. After 5 days for culture, spheres >50 μm were counted using an eye piece graticule, and the percentage of cells plated which formed spheres was calculated and is referred to as percentage mammosphere formation. Mammosphere assays were performed in triplicate and repeated three times independently.
# [2] = system: MCF-7 breast cancer cells; settings: b-TPP, identified in International Application PCT/US2018/062174; read-out: IC-50 inhibiting CSC propagation; cited from earlier work
# [3] = system: MDA-MB-231 triple negative breast cancer cells; assay: mammosphere formation assay (CSC propagation) in MDA-MB-231 cells; format: cell-based, human
# Procedure: as §1
# [4] = system: MCF-7 breast cancer cells; assay: cell viability by sulphorhodamine (SRB) assay in MCF-7 cells; format: cell-based; settings: Homo sapiens, MCF7, 250 nM, 500 nM and 1 μM, read-out: reduction in cell viability
# Procedure: (§2) Cell viability was assessed in MCF-7 and hTERT-BJ1 cells by sulphorhodamine (SRB) assay, based on the measurement of cellular protein content. After treatment with d-TPP (50 nM+1 μM) for 24, 48 or 72 hours, cells were fixed with 10% trichloroacetic acid (TCA) for 1 hour in cold room, and dried overnight at room temperature. Then, cells were incubated with SRB for 15 min, washed twice with 1% acetic acid, and air dried for at least 1 hour. Finally, the protein-bound dye was dissolved in 10 mM Tris pH 8.8 solution and read using a plate reader at 540 nm.
# [5] = system: normal human fibroblasts (hTERT-BJ1); assay: cell viability by sulphorhodamine (SRB) assay in normal fibroblasts; format: cell-based
# Procedure: as §2
# MCF-7 cells [6] = assay: Seahorse XFe96 metabolic flux analysis, oxygen consumption rate (OCR); format: cell-based, human
# Procedure: (§3) The extracellular acidification rate (ECAR) and real-time oxygen consumption rate (OCR) assays for metabolic flux analysis were performed using the Seahorse Extracellular Flux (XFe-96) analyzer (Seahorse Bioscience). Briefly, 15,000 MCF-7 cells per well were seeded into XFe-96 well cell culture plates, and incubated overnight to allow attachment. Cells were then treated with increasing concentrations of d-TPP (50 nM+500 nM) for 24 hours. Vehicle alone (DMSO) control cells were processed in parallel. Then, cells were washed in pre-warmed XF assay media (or for OCR measurement, XF assay media supplemented with 10 mM glucose, 1 mM Pyruvate, 2 mM L-glutamine and adjusted at 7.4 pH). Cells were then maintained in 175 μL/well of XF assay media at 37 C, in a non-CO2 incubator for 1 hour. During the incubation time, 5 μL of 80 mM glucose, 9 μM oligomycin, and 1 M 2-deoxyglucose (for ECAR measurement) or 10 μM oligomycin, 9 μM FCCP, 10 μM Rotenone, 10 μM antimycin A (for OCR measurement), were loaded in XF assay media into the injection ports in the XFe-96 sensor cartridge. Data set was analyzed by XFe-96 software after the measurements were normalized by protein content (SRB). All experiments were performed three times independently.
# MCF-7 cells [7] = assay: Seahorse XFe96 metabolic flux analysis, extracellular acidification rate (ECAR); format: cell-based, human; settings: MCF-7, d-TPP 50 nM to 500 nM
# Procedure: as §3
# adherent MCF-7 cells = assay: xCELLigence real-time cell analysis of cell proliferation; format: cell-based, human
# Procedure: The xCELLigence system was used to analyze the kinetics of d-TPP action on cell proliferation of adherent MCF-7 cells. The xCELLigence system evaluates the real-time, label-free monitoring of cell health and behavior, by measuring the electrical impedance, whose magnitude is dependent on the number of cells. Real-time cell analysis was performed for 48-hour and 72-hour treatment with d-TPP, at concentrations of 50 nM, 100 nM, and 250 nM. The control was vehicle-only. The results for the 48-hour d-TPP treatment are shown in FIGS. 8A and 8B, and FIGS. 8C and 8D show results for the 72-hour d-TPP treatment.
# The xCELLigence Real-time cell analysis (RTCA) System was sourced from ACEA Biosciences Inc. The xCELLigence RTCA system provides a useful approach for the real-time monitoring of the biological status of adherent cells, by measuring the electrical impedance, expressed as a cell index (CI) value. 5000 MCF-7 cells were seeded in a 16-well plate (E-plate). 24 hours after seeding, cells were treated with vehicle or increasing concentrations of d-TPP (from 50 nM to 250 nM) for additional 48 hours or 72 hours. RTCA was performed by measuring the cell-induced electrical impedance values, which were automatically recorded every 15 min for 96 h. This approach allows the quantification of the onset and kinetics of the cellular response. Experiments were repeated three times independently, using quadruplicate samples for each condition.
# [8] = system: human breast tumors initiated from the MDA-MB-231 cell line; assay: CAM assay, tumor growth and metastasis; format: in vivo, chicken embryos
# Procedure: (§4) Further evaluation of both efficacy and toxicity was performed on human breast tumors initiated from the MDA-MB-231 cell line in chicken embryos using the CAM Model available from Inovotion (La Tronche, France). […] With respect to the CAM assay, fertilized eggs were incubated at 37.5° C. with 50% relative humidity for 9 days. The graft was dropped into each egg through a small hole drilled through the eggshell into the air sac, and a 1 cm^2 window cut in the eggshell above the CAM. This grafting process was used for each egg in a test group. Because the grafting process is an invasive surgical act, some death is expected to occur during hours after the tumor graft. For the data reported herein, at least 10 eggs per test group were successfully grafted.
# The MDA-MB-231 tumor cell line was cultivated in DMEM medium supplemented with 10% FBS and 1% penicillin/streptomycin. After the 9-day incubation period, cells were detached with trypsin, washed with complete medium, and suspended in a graft medium. An inoculum of 1.10^6 cells was added onto the CAM of each egg, and then eggs were randomized into test groups. Tumors were detectable within one day of the graft. The negative control group was a 0.125% DMSO in PBS, and d-TPP groups for concentrations of 6.25 μM, […], were evaluated. Each egg in a group was treated 8 times per day. After 8 days of treatments, tumor growth was quantitatively evaluated. The upper portion of the CAM (with the tumor) was removed, washed in a PBS buffer, and then directly transferred in PFA for a 48-hour fixation. Tumors were then carefully cut away from normal CAM tissue and weighed. For all quantitative data relating to the chicken egg evaluation, a one-way ANOVA (with post-tests between each couple of groups) was performed with the specialized computer software Prism® (GraphPad Software). For all analyses, statistical difference between groups is made visible on graphs by the presence of stars with the following meaning: no asterisk means p>0.05; * means […]; ** means 0.01≥p>0.001; and *** means 0.001≥p. […] Consistent with the evaluations described above, the d-TPP tumor growth inhibition effect was dose-dependent.
# Metastatic invasion was also quantitatively evaluated. A 1 cm^2 portion of the lower CAM was collected to evaluate the number of metastatic cells in 8 samples per group (n=8). Genomic DNA was extracted from the CAM using a commercial kit, and analyzed by qPCR with specific primers for Human Alu sequences. Calculation of Cq for each sample, mean Cq and relative amounts of metastases for each group were directly managed by the Bio-Rad® CFX Maestro software. […]
# chicken embryos = assay: CAM assay, embryonic tolerability; format: in vivo
# Procedure: as §4
# Embryonic tolerability of the d-TPP treatments were also quantitatively evaluated. Embryonic viability was checked daily following grating and during treatment. The number of dead embryos was also counted on the final day, to evaluate treatment-induced embryo toxicity. […] It should be appreciated by those having an ordinary level of skill in the art that toxicity should be analyzed for establishing a dosing regimen.
# [9] = Berberine chloride 10 μM with d-TPP 100 nM
structure (smiles),measurement,setting,value
"O=CC[C@@H](O)[C@H](O)[C@H](O)CO [2-DG, 2-deoxy-D-glucose]",increase in the inhibitory effect of d-TPP alone,[1]; 2-DG 10 mM with d-TPP 100 nM,2 fold
same,residual mammosphere formation capability,[1]; 2-DG 20 mM with d-TPP 100 nM,< 10%
COc1ccc2cc3[n+](cc2c1OC)CCc1cc2c(cc1-3)OCO2 [Berberine chloride],reduction (CSC formation),[1]; Berberine chloride 1 μM with d-TPP 100 nM,60%
same,increase in efficacy of d-TPP,[1]; [9],~5 fold
same,inhibition of CSC formation,[1]; [9],over 80%
O=C(Nc1ccc([N+](=O)[O-])cc1Cl)c1cc(Cl)ccc1O [Niclosamide],increase in efficacy of d-TPP on CSC activity,[1]; Niclosamide 250 nM with d-TPP 100 nM,~2 fold
same,increase in efficacy of d-TPP on CSC activity,[1]; Niclosamide 500 nM with d-TPP 100 nM,~3 fold
"O=C1O[C@H]([C@@H](O)CO)C(O)=C1O [Vitamin C, Ascorbic Acid]",IC50,"[1]; Vitamin C separately (without d-TPP), read-out: IC-50 MCF-7 CSC propagation",1000 µM
same,inhibition of propagation of CSCs,[1]; Vitamin C 250 μM in combination with d-TPP at 100 nM,over 50%
same,inhibition of propagation of CSCs,[1]; Vitamin C 500 μM in combination with d-TPP at 100 nM,over 70%
same,increase in CSC sensitivity to Vitamin C caused by d-TPP,[1]; d-TPP 100 nM,~4 fold
"C(=CC[P+](c1ccccc1)(c1ccccc1)c1ccccc1)C[P+](c1ccccc1)(c1ccccc1)c1ccccc1 [b-TPP, 2-butene-1,4-bis-TPP]",IC50,[2],~0.5 µM
"CCCCCCCCCCC[P+](c1ccccc1)(c1ccccc1)c1ccccc1 [d-TPP, dodecyl-TPP]",IC50,"[1]; MCF-7, read-out: concentration necessary to half CSC activity",~0.25 µM
same,potency in inhibiting mammosphere formation / CSC propagation compared with b-TPP (other TPP-derivatives),[1]; MCF-7,twice as potent; also recorded: more than twice as potent
same,reduction in mammosphere formation,"[1]; MCF-7, d-TPP 50 nM and 100 nM",20%
same,reduction in CSC propagation (mammosphere formation),"[1]; MCF-7, d-TPP 500 nM and 1 μM",80%
same,inhibition at 1 µM,"[3]; Homo sapiens, MDA-MB-231, d-TPP 1 μM",~80%
same,effect on CSC propagation (mammosphere formation),"[3]; MDA-MB-231, d-TPP 50 nM (lowest concentration tested)",showed an inhibitory effect
same,cytotoxicity at 0.25 µM,"[4]; MCF-7, 24 hours",~30%
same,cytotoxicity at 0.25 µM,"[4]; MCF-7, 72 hours",~80%
same,toxicity to hTERT-BJ1 cells,[5]; 50 nM and 100 nM,no toxicity
same,cell viability of hTERT-BJ1 cells,"[5]; 250 nM, 500 nM and 1 μM",decreased
same,IC50,"MCF-7 cells [6]; Homo sapiens, MCF7, MCF-7, 24 hours treatment, read-out: IC-50 basal mitochondrial respiration",~0.25 µM
same,oxygen consumption rate (OCR),"MCF-7 cells [6]; MCF-7, d-TPP 50 nM",dramatic reduction
same,ATP levels,"MCF-7 cells [6]; MCF-7, d-TPP 50 nM to 500 nM",dose-dependently depleted
same,glycolysis (ECAR),MCF-7 cells [7],substantially and dose-dependently increased
same,effect on cell number (cell index),"adherent MCF-7 cells; MCF-7, 50 nM d-TPP, 72 h treatment",trend of reduced cell number
same,effect on cell proliferation (cell index),"adherent MCF-7 cells; MCF-7, 100 nM d-TPP",main cytostatic effect
same,cytotoxicity (cell index),"adherent MCF-7 cells; MCF-7, 250 nM d-TPP",Cytotoxicity was present
same,inhibition of metastasis,[8]; 25 μM concentration,~75%
same,inhibition of tumor growth,[8]; 25 sM concentration,~40%
same,tumor growth (tumor weight) compared to the negative control,[8]; medium (25.0 μM) and high (62.5 μM) doses,significantly inhibited
same,metastatic invasion (qPCR for Alu sequences in the lower CAM) compared to the negative control,[8]; medium dose,metastasis regression
same,embryo toxicity,chicken embryos; higher dose,resulted in mortality
same,embryo toxicity,chicken embryos; medium and low doses,did not exhibit toxicity
